Format in all cases: biochemical
For assay [1], the target named is T1, Human recombinant 5-LO (Homo sapiens, UniProt P09917).
T1 construct: purchased Cayman Chemical
T1 sequence (P09917 1-674): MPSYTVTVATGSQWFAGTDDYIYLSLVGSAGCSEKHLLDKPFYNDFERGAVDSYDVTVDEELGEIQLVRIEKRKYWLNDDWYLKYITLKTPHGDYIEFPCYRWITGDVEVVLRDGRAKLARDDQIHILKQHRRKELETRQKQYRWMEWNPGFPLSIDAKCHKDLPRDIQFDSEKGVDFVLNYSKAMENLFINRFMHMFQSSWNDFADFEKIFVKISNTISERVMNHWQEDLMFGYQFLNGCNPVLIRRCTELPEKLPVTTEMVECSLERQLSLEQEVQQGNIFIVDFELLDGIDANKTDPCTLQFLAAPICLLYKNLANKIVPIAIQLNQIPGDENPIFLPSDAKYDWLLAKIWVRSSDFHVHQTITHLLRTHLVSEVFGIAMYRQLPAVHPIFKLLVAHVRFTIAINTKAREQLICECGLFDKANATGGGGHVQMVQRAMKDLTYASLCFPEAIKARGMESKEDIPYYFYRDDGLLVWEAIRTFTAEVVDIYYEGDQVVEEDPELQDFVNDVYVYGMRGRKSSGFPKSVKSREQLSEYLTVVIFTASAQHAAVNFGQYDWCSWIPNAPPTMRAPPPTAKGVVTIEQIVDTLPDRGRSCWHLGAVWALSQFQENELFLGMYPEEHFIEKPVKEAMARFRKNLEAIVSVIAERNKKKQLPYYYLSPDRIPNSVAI
As to the kind of experiment: Redox absorbance assay (13(S)-HpODE absorbance at 234 nm, pseudo-peroxidase activity). To be noted: for Redox absorbance, Δabs: absorbance at 234 nm, change over 180 seconds, average ± SD of triplicate. From the text: (§1) Lipid peroxide is consumed when 5-LO is activated to the ferric iron form. The enzyme remains activated during the dioxygenation reaction cycle. If a redox inhibitor is present, it reduces the catalytic iron into the ferrous form and inhibits the enzyme reaction. Another lipid peroxide must be consumed to re-activate 5-LO to the ferric form. As a result, reductions in the amount of lipid peroxide in the reaction mixture signify redox activity. […] The absorbance-based method measures the amount of peroxide by its absorbance at 234 nm, and the fluorescence-based method measures it by analyzing its reaction with H2DCFDA.
The redox absorbance assay was carried out as described by Zweifel, et al.. Specifically, 10 µl of 1 mM inhibitor solution was mixed with 490 µl of 20 µM 13-HpODE solution. After 3 minutes of incubation at room temperature, the solution was transferred to a cuvette. The reaction started when 500 µl of the 20 unit/ml enzyme solution was added to the peroxide-inhibitor mixture in the cuvette. The absorbance of 13(S)-HpODE at 234 nm was measured immediately after mixing, using a SpectraMax M5 spectrophotometer. Data points were collected for 3 minutes. The reaction buffer consisted of 50 mM potassium phosphate buffer (pH 7.6), 0.1 mM EDTA, 100 µM ATP, and 0.3 mM CaCl2.
The accuracy and efficacy of the redox absorbance assay were determined by testing the selected compounds. The absorbance of 13(S)-HpODE was measured at 234 nm, and the values were recorded every second for 3 minutes.
In theory, because the extinction coefficient of 13(S)-HpODE at 234 nm is 23,000 M^−1 cm^−1, 10 µM 13(S)-HpODE contributes a maximum of 0.23 in absorbance.

In assay [2] the target is T1, Human recombinant 5-LO. The experiment in a line: Redox fluorescence assay (remaining 13(S)-HpODE by H2DCFDA fluorescence after pseudo-peroxidase reaction).
Excerpt: as §1
H2DCF-DA (60 µM) was pre-cleaved by 5-LO crude lysate in the reaction buffer (50 mM Tris, pH 7.5, 2 mM ethylenediaminetetraacetic acid [EDTA], 2 mM CaCl2, and 10 µM adenosine triphosphate [ATP]) for more than 10 minutes before the main reaction, as previously reported. In a 384-well plate, 10 µl of 450 mU/µl enzyme solution was distributed and mixed with 10 µl of inhibitor solution with various concentrations. 13(S)-HpODE (10 µM; 20 µl) was added to each well to start the reaction. After 3 minutes, pre-cleaved H2DCF-DA dye (20 µl) was added and incubated for more than 10 minutes. The fluorescence signal was measured using a fluorometer at excitation and emission wavelengths of 485 and 530 nm, respectively. All steps were carried out at room temperature.
The highest and lowest compound concentrations in the serially diluted set were 100 µM and 1.69 nM, respectively. […] The final DMSO amount in the reaction mixture was kept at 1% throughout the experiments. […] Four wells without any inhibitors represented the “100% peroxide” control wells, and the average fluorescence values in the control wells were used for normalization of fluorescence data. The concentration points were duplicated in each test and the concentration-dependent fluorescence data were fitted with three-parameter logistic regression in Prism using the top and bottom constraints of 100 and 0, respectively.

Assay [3] has as its target T1, Human recombinant 5-LO. As to the kind of experiment: Redox absorbance assay (13(S)-HpODE absorbance at 234 nm, pseudo-peroxidase activity).
Where [4] appears, read: 10 µM inhibitor, 234 nm, 3 min kinetic curve, Figure 2.

Data on seven compounds can be found in article PMC3912022, “A Fluorescence-Based Assay for Measuring the Redox Potential of 5-Lipoxygenase Inhibitors” (PLoS ONE, 2014).

“Also recorded” adds a separate entry of the source. A value given as a limit tells only on which side of the number the result lay.

As a reminder, the EC50 is the concentration needed to bring the measured effect to its halfway point. As to `COc1ccc(/C=C2\SC(c3ccc(Cl)cc3)=NC2=O)cc1` [CAY10649, (Z)-2-(4-chlorophenyl)-5-(4-methoxybenzylidene)thiazol-4(5H)-one], the “Redox absorbance, Δabs” value at Human recombinant 5-LO [1] (10 µM inhibitor) is listed as 0.014±0.011. Also, the EC50 at Human recombinant 5-LO [2] is greater than 100 µM.
As to `N#CC(=Cc1ccc(O)c(O)c1)C(=O)OCC=Cc1ccccc1` [CDC, cinnamyl 3,4-dihydroxy-alpha-cyanocinnamate], the “redox activity in absorbance assay carried out in the fluorescence assay buffer” value at Human recombinant 5-LO [3] (buffer of the redox fluorescence assay, Figure 4-C) is on record as “redox activity was not detected”. Further, the “absorbance pattern over time (redox / non-redox pattern)” value at Human recombinant 5-LO [1] (setting [4]) was “perfect non-redox pattern; also recorded: increases in the absorbance assay”. The “Redox absorbance, Δabs” value at Human recombinant 5-LO [1] (10 µM inhibitor) is reported as 0.015±0.005. Further, the EC50 at Human recombinant 5-LO [2] turned out to be 0.13 ± 0.17 µM.
In the case of `O=C(O)C=Cc1ccc(O)c(O)c1` [Caffeic acid, 3,4-dihydroxy cinnamic acid], the “absorbance pattern over time (redox / non-redox pattern)” value on Human recombinant 5-LO [1] (setting [4]) is reported as “no changes in absorbance over time”. Also, on Human recombinant 5-LO [1] (10 µM inhibitor), the “Redox absorbance, Δabs” value came to 0.005±0.003. Moreover, the “redox activity less than that of the stronger redox inhibitors” value at Human recombinant 5-LO [2] (fluorescence assay, relative to stronger redox inhibitors) is on record as 60%.
In the case of `CC(Cc1ccc(O)c(O)c1)C(C)Cc1ccc(O)c(O)c1` (centres unmarked) [NDGA, 4,4′-(2,3-dimethyl-1,4-butanediyl)bis-1,2-benzenediol], at Human recombinant 5-LO [1] (setting [4]), the “absorbance pattern over time (redox / non-redox pattern)” value is listed as “increases in the absorbance assay”. The “Redox absorbance, Δabs” value on Human recombinant 5-LO [1] (10 µM inhibitor) was 0.009±0.007.
Consider `Cn1nccc1-c1ccc(Sc2cccc(C3(C(N)=O)CCOCC3)c2)cc1` [PF4191834], for which the “Redox absorbance, Δabs” value at Human recombinant 5-LO [1] (10 µM inhibitor) was found to be 0.015±0.005. Further, the EC50 at Human recombinant 5-LO [2] is greater than 100 µM.
The like results for `CCCCCCC(Sc1nc(Cl)cc(Nc2cccc(C)c2C)n1)C(=O)O` (centres unmarked) [YS121, 2-[[4-chloro-6-[(2,3-dimethylphenyl)amino]-2-pyrimidinyl]thio]-octanoic acid] were, in that order, 0.008±0.005 and 77.2 ± 35.1 µM.
With `CC(c1cc2ccccc2s1)N(O)C(N)=O` (centres unmarked) [Zileuton, N-[1-benzo(b)thien-2-ylethyl]-N-hydroxy-urea], the “absorbance pattern in substrate-depleted conditions” value at Human recombinant 5-LO [3] (80 minutes after the start of the reaction, 234 nm, Figure 4) was “increased slowly over time”. Besides, at Human recombinant 5-LO [1] (setting [4]), the “absorbance pattern over time (redox / non-redox pattern)” value is “clear redox pattern” and the reduction in absorbance is recorded as 0.042. For the same compound, the “Redox absorbance, Δabs” value at Human recombinant 5-LO [1] (10 µM inhibitor) is on record as −0.025±0.018. For the same compound, on Human recombinant 5-LO [1] (first 20 seconds of the reaction, Figure 2), the “share of the decrease in absorbance in the first 20 seconds” value is recorded as “about 50%”.
